Tests used:
[1] = Body weight in OD26749 xenograft studies; type: in vivo, nude mice
Experimental: The in vivo efficacies of Compounds (1) and (2) in combination with whole body IR were examined in the OD26749 primary NSCLC (non-small cell lung cancer) and the OE-19 GEJ cell line xenograft models. In these studies, Compounds (1) and (2) were formulated with 16% captisol/1% PVP/1% HPMC E5 pH2.
The in vivo efficacy of Compound (1) was evaluated in the primary OD26749 NSCLC subcutaneous xenograft model. […] Efficacy was evaluated using a regimen in which 2-Gy whole body IR was administered twice, one week apart. Compound (1) was administered PO (tid at 0, 3, and 7 h) at 100 mg/kg alone or with a single 2 Gy dose of whole body IR at 3.25 h. Seven days later, the same regimens were repeated. Compound (1) in combination with 2 Gy whole body IR induced significant tumor regression (% T/Ti of −75; P<0.01) compared to IR alone.
The efficacies of Compounds (1) and (2) in combination with whole body IR (2 Gy) were evaluated in the OD26749 primary NSCLC xenograft model at a Compound (1) dose level of 100 mg/kg PO bid (0 and 4 h) and Compound (2) dose levels of 50 mg/kg and 100 mg/kg PO bid (0 and 4 h). Two cycles of whole body IR (2 Gy) were given 15 min after the first compound administration (0.25 hour). Control animals were administered vehicle PO bid (0 and 4 h). Two cycles of treatment were performed on Day 0 and Day 7.

HFL1 [2] = assay: Combination with genotoxic agents, cell viability (Mixtures Blend); type: cell-based, human
Experimental: The cell-based experiments and assays were performed with either molecule but not always with both. Compounds (1) and (2) were generally very similar in those assays and experiments. Analysis of the combination experiments was performed using two methods: the Bliss Additivity model and the Mixtures Blend method to determine the degree of synergy, additivity, or antagonism. In the Bliss method, a matrix of Bliss scores was generated for each cell line and treatment, and a sum of the Bliss values over the range of combination concentrations tested was calculated. […] Larger average Bliss values indicate greater confidence in reporting synergy, and smaller scores indicate greater confidence in reporting antagonism. In the Mixtures Blend method combinants were added in a range of optimal ratios using design of experiment (DOE) software (DX-8 from STAT-EASE); the cells were irradiated with 2 Gy as required. Synergy was determined using statistical analysis of the data (ANOVA) to indicate linear (additivity) or statistically significant (p<0.1) non-linear (antagonism or synergy) mixes of the combinants. The following SOC agents were tested in double combinations with Compound (1): etoposide (a topoisomerase inhibitor that induces DSBs), cisplatin (DNA cross-linker), carboplatin (DNA cross-linker), fluorouracil (5-FU, antimetabolite that inhibits thymidylate synthase), paclitaxel (mitotic inhibitor that binds to tubulin), cetuximab (EGFR monoclonal antibody), and radiation. […] These findings were confirmed using the Bliss Additivity model (Table 21). […] While there is not total agreement in the various lines tested, (as detailed in the other sections) the majority agree and the conclusions arrived at are common to each. […] The cancer cell lines in Table 19 indicate: ESO26-gastroesophageal junction cancer, OE19-gastroesophageal junction cancer, […]549-lung cancer, colo205-colon cancer, H460-lung cancer, H2009-lung cancer, FaDu-pharynx cancer, Miapaca2-pancreatic cancer, HFL1-human fetal lung fibroblast.

[3] = test system: OD26749 primary NSCLC xenograft; assay: OD26749 primary NSCLC xenograft efficacy with whole body IR; type: in vivo, nude mice; conditions: for % T/C (Day 29): 2 Gy IR ([…]) q7dx2
[4] = Body weight in ST-02-0004 xenograft studies; conditions: in vivo, po, 25 mg/kg
Experimental: The in vivo activities of Compounds (1) and (2) were compared in combination with focused beam IR in a primary gastric cancer subcutaneous xenograft model. In the ST 02 0004 model, focused IR was administered on three consecutive days alone and in combination with Compound (1) or Compound (2). […] For all experimental groups, treatment was generally well tolerated as evidenced by maximum body weight losses ranging from −8.06% to −10.0% 10 to 48 days after treatment initiation
The anti-tumor activity of Compound (2) in combination with focused-beam IR and the standard of care agents, paclitaxel and carboplatin, was also evaluated in the ST 02 0004 model. Treatment with paclitaxel, carboplatin, and IR was administered once per week for three weeks alone or in combination with Compound (2). […] Further, the 50 and 25 mg/kg Compound (2), paclitaxel/carboplatin, IR combination groups were statistically different (P<0.05) from the paclitaxel/carboplatin, paclitaxel/carboplatin/50 mg/kg Compound (2), and paclitaxel/carboplatin/IR groups. Compound (2) blood exposures were 9.3 and 27 μg*h/mL for the 25 and 50 mg/kg Compound (2) bid groups, respectively.

[5] = test system: triple-negative breast cancer cell lines; assay: Doxorubicin/epirubicin combination, all breast cancer lines tested; type: cell-based; conditions: doxorubicin and Compound (2)
Experimental: (§1) The cell-based experiments and assays were performed with either molecule but not always with both. Compounds (1) and (2) were generally very similar in those assays and experiments. Analysis of the combination experiments was performed using two methods: the Bliss Additivity model and the Mixtures Blend method to determine the degree of synergy, additivity, or antagonism. In the Bliss method, a matrix of Bliss scores was generated for each cell line and treatment, and a sum of the Bliss values over the range of combination concentrations tested was calculated. […] Larger average Bliss values indicate greater confidence in reporting synergy, and smaller scores indicate greater confidence in reporting antagonism. In the Mixtures Blend method combinants were added in a range of optimal ratios using design of experiment (DOE) software (DX-8 from STAT-EASE); the cells were irradiated with 2 Gy as required. Synergy was determined using statistical analysis of the data (ANOVA) to indicate linear (additivity) or statistically significant (p<0.1) non-linear (antagonism or synergy) mixes of the combinants.

[6] = test system: DU4475 breast cancer line; assay: Doxorubicin or epirubicin combination in DU4475 cells; type: cell-based; conditions: Doxorubicin or epirubicin in combination with Compound (2)
Experimental: The cell-based experiments and assays were performed with either molecule but not always with both. […] Analysis of the combination experiments was performed using two methods: the Bliss Additivity model and the Mixtures Blend method to determine the degree of synergy, additivity, or antagonism. In the Bliss method, a matrix of Bliss scores was generated for each cell line and treatment, and a sum of the Bliss values over the range of combination concentrations tested was calculated. […] Larger average Bliss values indicate greater confidence in reporting synergy, and smaller scores indicate greater confidence in reporting antagonism. In the Mixtures Blend method combinants were added in a range of optimal ratios using design of experiment (DOE) software (DX-8 from STAT-EASE); the cells were irradiated with 2 Gy as required. Synergy was determined using statistical analysis of the data (ANOVA) to indicate linear (additivity) or statistically significant (p<0.1) non-linear (antagonism or synergy) mixes of the combinants.

HFL1 [7] = assay: Combination with etoposide, viability (Bliss analysis); type: cell-based, human; conditions: Compound (2) with etoposide; n = 3
Experimental: as §1

CNC(=O)c1ccnc2c([C@H](C)CNc3cc(-c4cnc(C)nc4)ncn3)cccc12 [Compound (1), (S)-N-methyl-8-(1-((2′-methyl-[4,5′-bipyrimidin]-6-yl)amino)propan-2-yl)quinoline-4-carboxamide]
Max. body wt loss (%) ([1]; PO 25 mg/kg bid (0, 4 h), 2 Gy IR ([…]) q7dx2, Day 8): −7.70%
Max. body wt loss (%) ([1]; PO 50 mg/kg bid (0, 4 h), 2 Gy IR ([…]) q7dx2, Day 8): −5.50%
Max. body wt loss (%) ([1]; PO 100 mg/kg bid (0, 4 h), 2 Gy IR ([…]) q7dx2, Day 8): −3.70%
Max. body wt loss (%) ([1]; PO 100 mg/kg tid (0, 3, 7 h) q7dx2, no IR): weight gain
Max. body wt loss (%) ([1]; PO 100 mg/kg tid (0, 3, 7 h) qdx1, 2 Gy qdx1 (3.25 h), Day 2): −9.70%
Max. body wt loss (%) ([1]; PO 100 mg/kg tid (0, 3, 7 h) qdx1, no IR, Day 2): −2.40%
Max. body wt loss (%) ([1]; PO 200 mg/kg qd, 2 Gy IR ([…]) q7dx2, Day 1): −6.10%
Synergy or Antagonism, No Radiation (HFL1 [2]; no agent ticked): Additivity
Synergy or Antagonism, Plus Radiation (2 Gy) (HFL1 [2]; no agent ticked): No effect
Synergy or Antagonism, No Radiation (HFL1 [2]; with Cisplatin): Additive
Synergy or Antagonism, No Radiation (HFL1 [2]; with Cisplatin and 5-FU): Additivity
Synergy or Antagonism, Plus Radiation (2 Gy) (HFL1 [2]; with Cisplatin and 5-FU): Additivity, Plus
Synergy or Antagonism, No Radiation (HFL1 [2]; with Etoposide): Synergy
Synergy or Antagonism, No Radiation (HFL1 [2]; with Paclitaxel): Additivity
% T/C (Day 29) ([3]; PO 25 mg/kg bid (0, 4 h)): 25.6%
% T/C (Day 20) ([3]; PO 100 mg/kg tid (0, 3, 7 h) qdx1, 2 Gy qdx1 (3.25 h) whole body IR, 100 mg/kg): 26%
% T/C (Day 20) ([3]; PO 100 mg/kg tid (0, 3, 7 h) qdx1, no IR): 101%
% T/C (Day 29) ([3]; PO 200 mg/kg qd): 6.5%

[2H]c1nc(C)nc([2H])c1-c1cc(NC[C@@H](C)c2cccc3c(C(=O)NC)ccnc23)ncn1 [Compound (2), (S)-N-methyl-8-(1-((2′-methyl-4′,6′-dideutero-[4,5′-bipyrimidin]-6-yl)amino)propan-2-yl)quinoline-4-carboxamide]
Max. body wt loss (%) [4]: −6.73%
shift in IC50 of the combination compared to doxorubicin alone [5]: > 3 fold
Bliss analysis, combination effect [6]: strong synergy (greater than 10 indicates strong synergy)
Average Bliss score (HFL1 [7]): 8.7 ± 5.6 (n = 3)

Reference: patent US10039761B2, “Co-crystals and pharmaceutical compositions comprising the same” (Vertex Pharmaceuticals Incorporated, priority 2013, dated 2018)
